Assay results from patent publication US20070015823A1, “Ambruticin VS compounds” (priority 2004, published 2007).
≈ marks a conversion by molar mass, not a printed value. Where two headings read alike, the source gives them in different places.

What was measured:
[1] = test system: A. flavus ATCC 204304; test: Broth microdilution antifungal susceptibility, NCCLS M38-A; type: cell-based, Aspergillus flavus; details: minimal concentration inhibiting >95% growth; average of at least two assays (except I-l and I-x)
[2] = test system: A. fumigatus ATCC 204305; test: as above; type: cell-based, Aspergillus fumigatus; details: minimal concentration inhibiting >95% growth; average of at least two assays (except I-l and I-x)
[3] = test system: Trichophyton mentagrophytes; test: Dermatophyte broth microdilution, NCCLS M38-A; type: cell-based
[4] = test system: Microsporum gypseum; test: Dermatophyte broth microdilution, NCCLS M38-A; type: cell-based
[5] = test system: Trichophyton interdigitale; test: Dermatophyte broth microdilution, NCCLS M38-A; type: cell-based
[6] = test system: Epidermophyton floccosum; test: Dermatophyte broth microdilution, NCCLS M38-A; type: cell-based
[7] = test system: Trichophyton rubrum; test: Dermatophyte broth microdilution, NCCLS M38-A; type: cell-based
[8] = test system: Microsporum canis; test: Dermatophyte broth microdilution, NCCLS M38-A; type: cell-based
[9] = test system: Cryptococcus neoformans; test: Broth microdilution antifungal susceptibility, NCCLS M38-A; details: 50% growth inhibition, range = minimum and maximum of multiple assays; for MIC C. neoformans 97-14: strain 97-14; for MIC C. neoformans 11239: strain 11239; for MIC C. neoformans 11240: strain 11240
[10] = test system: Blastomyces dermatitidis; test: as above; type: cell-based
[11] = test system: Histoplasma capsulatum; type: cell-based

| SMILES | MIC0 A. flavus ATCC 204304 [1] | MIC0 A. fumigatus ATCC 204305 [2] | MIC0 Tm [3] | MIC0 Mg [4] | MIC0 Ti [5] | MIC0 Ef [6] | MIC0 Tr [7] | MIC0 Mc [8] | MIC C. neoformans 97-14 [9] | MIC C. neoformans 11239 [9] | MIC C. neoformans 11240 [9] | other results |
| --- | --- | --- | --- | --- | --- | --- | --- | --- | --- | --- | --- | --- |
| CC[C@H]1O[C@@H](/C(C)=C/[C@H](C)/C=C/[C@H]2[C@@H](C)[C@@H]2/C=C/[C@@H]2O[C@H](CC(=O)O)C[C@H](NC3CCC3)[C@H]2O)CC=C1C [I-jj, (5S,6R)-5-(cyclobutylamino)-6-hydroxypolyangioic acid] | 5.33 µg/mL | 6.67 µg/mL | >8 µg/mL | 1.25 µg/mL | 2.51 µg/mL | 5.65 µg/mL | 3.17 µg/mL | 8 µg/mL | 0.125 µg/mL (≈ 0.237 µM) | 2 µg/mL (≈ 3.79 µM) | 2 µg/mL (≈ 3.79 µM) |  |
| CC[C@H]1O[C@@H](/C(C)=C/[C@H](C)/C=C/[C@H]2[C@@H](C)[C@@H]2/C=C/[C@@H]2O[C@H](CC(=O)O)C[C@H](N(C)C)[C@H]2O)CCC1C (some centres unmarked) [IV-b, 20,21-dihydro ambruticin VS-3] | 0.44 µg/mL | 0.88 µg/mL | 4 µg/mL | 1.25 µg/mL | 2.51 µg/mL | 1.41 µg/mL | 2.51 µg/mL | 1.41 µg/mL |  |  |  |  |
| CC[C@H]1O[C@@H](/C(C)=C/[C@H](C)/C=C/[C@H]2[C@@H](C)[C@@H]2/C=C/[C@@H]2O[C@H](CC(=O)O)C[C@H](N(C)C(C)=O)[C@H]2O)CC=C1C [I-i, (5S,6R)-5-[N-methyl(acetamido)]-6-hydroxypolyangioic acid] | >32 µg/mL | 32 µg/mL | >8 µg/mL | >8 µg/mL | >8 µg/mL | >8 µg/mL | >8 µg/mL | >8 µg/mL |  |  |  |  |
| CCN[C@H]1C[C@@H](CC(=O)O)O[C@@H](/C=C/[C@H]2[C@H](C)[C@@H]2/C=C/[C@@H](C)/C=C(\C)[C@H]2CC=C(C)[C@@H](CC)O2)[C@@H]1O [I-mm, (5S,6R)-5-(ethylamino)-6-hydroxypolyangioic acid] | 0.93 µg/mL | 1.28 µg/mL | 2.82 µg/mL | 0.79 µg/mL | 0.79 µg/mL | 1.41 µg/mL | 1.25 µg/mL | 0.7 µg/mL | 0.125 µg/mL (≈ 0.249 µM) | 0.25 µg/mL (≈ 0.498 µM) | 0.0625 µg/mL (≈ 0.125 µM) | MIC B. dermatitidis Gu [10]: >12.5 µg/mL; MIC B. dermatitidis Kr [10]: >12.5 µg/mL; MIC B. dermatitidis V [10]: >12.5 µg/mL; MIC H. capsulatum G217B [11]: <0.19 µg/mL; MIC H. capsulatum GS20 [11]: <0.19 µg/mL |
| CCC(=O)N[C@H]1C[C@@H](CC(=O)O)O[C@@H](/C=C/[C@H]2[C@H](C)[C@@H]2/C=C/[C@@H](C)/C=C(\C)[C@H]2CC=C(C)[C@@H](CC)O2)[C@@H]1O [I-l, (5S,6R)-5-propionamido-6-hydroxypolyangioic acid] | 16 µg/mL | 8 µg/mL | 5.66 µg/mL | 0.79 µg/mL | 0.79 µg/mL | 2.82 µg/mL | 1.58 µg/mL | 1.41 µg/mL |  |  |  |  |
| CC[C@H]1O[C@@H](/C(C)=C/[C@H](C)/C=C/[C@H]2[C@@H](C)[C@@H]2/C=C/[C@@H]2O[C@H](CC(=O)N3CCC3)C[C@H](N(C)C)[C@H]2O)CC=C1C [I-pp, (5S,6R)-1-(azetidin-1-yl)-5-dimethylamino-6-hydroxypolyangi-1-one] | 2 µg/mL | 4 µg/mL |  |  |  |  |  |  |  |  |  | MIC0 Tm ([3]; Trichophyton mentagrophytes (2 strains), 95% growth inhibition): 4 µg/mL; MIC0 Mg ([4]; Microsporum gypseum (3 strains), 95% growth inhibition): 2.51 µg/mL; MIC0 Ti ([5]; Trichophyton interdigitale (3 strains), 95% growth inhibition): 5.03 µg/mL; MIC0 Ef ([6]; Epidermophyton floccosum (2 strains), 95% growth inhibition): 2.82 µg/mL; MIC0 Tr ([7]; Trichophyton rubrum (3 strains), 95% growth inhibition): ¼; MIC0 Mc ([8]; Microsporum canis (2 strains), 95% growth inhibition): 1 µg/mL |
